Earlier results, collected in US20230263874A1, “TUMOR ANTIGENS FOR LIVER CANCER IMMUNOTHERAPY” (ISTITUTO NAZIONALE TUMORI IRCCS - FONDAZIONE G. PASCALE, priority 2020, published 2023).

System: hepatocellular carcinoma
Settings: second-line treatment, advanced liver cancer not responded to sorafenib; cited from earlier work

## CNC(=O)c1cc(Oc2ccc(NC(=O)Nc3ccc(Cl)c(C(F)(F)F)c3)c(F)c2)ccn1 [Regorafenib]
  improvement in overall survival: 2.8 month
  reduction risk of death: 38%
